Data from ChEMBL document CHEMBL6103616, “Isolation and Biosynthesis of Hyellamide, a Glycosylated N-Acyltyrosine Derivative, from the Cyanobacterium Hyella patelloides LEGE 07179” (J Nat Prod, 2025).
The source made the active and inactive calls. The calls are words filed in the database; no cut-off is given here.

Tested on: Bacillus subtilis
Assay: Antibacterial activity against Bacillus subtilis […] assessed as growth inhibition by agar disk diffusion method
Format: functional, organism-based

For CCCCCCCCCCCCCC(=O)N/C=C/c1ccc(O[C@@H]2OC[C@@H](O)[C@H](OC(C)=O)[C@H]2O)cc1, the Activity was “inactive”.
